Measurements reported in publication PMC8121435, “Cork-in-bottle mechanism of inhibitor binding to mammalian complex I” (Science Advances, 2021).

How the values were obtained:
Type in all cases: biochemical
[1] = target: T1, P. denitrificans complex I (Paracoccus denitrificans, UniProt P29916+P29918+P29920); assay: NADH:decylubiquinone oxidoreduction by purified P. denitrificans complex I; conditions: dQ, pH 6.5
T1 construct: Complex I was purified from P. denitrificans strain Pd1222; endogenous in cells; host or cells: P. denitrificans strain Pd1222
Procedure: (§1) All catalytic activity assays were conducted at 32°C in 96-well plates using a Molecular Devices Spectramax 384 plus plate reader. Catalysis was initiated by addition of 200 μM NADH and monitored at 340 and 380 nm (ε340–380 = 4.81 mM^−1 cm^−1). Linear rates were measured for all assays, inhibitors were added from dimethyl sulfoxide stock solutions as required, and inhibitor-insensitive rates (using either 1 μM piericidin A or 1.4 μM IACS-2858) were subtracted from each measured rate. Membrane samples were prepared as described previously ([17], [20], [59], [60]), diluted to 20 μg ml^−1 in 10 mM tris-SO4 (pH 7.5) and 250 mM sucrose, and supplemented with 3 μM horse heart cytochrome c (except for P. denitrificans, for which the activity is unaffected by the addition). Mouse, bovine, and yeast (Y. lipolytica) complex I were purified as described previously ([17], [20], [59]); diluted to 0.5 nM in 20 mM tris-HCl (pH 7.5), 0.15% asolectin, and 0.15% CHAPS; and assayed using either 200 μM dQ or 200 μM ubiquinone-1 (Sigma-Aldrich). Complex I was purified from P. denitrificans strain Pd1222 ([61]) and provided by O. D. Jarman (MRC Mitochondrial Biology Unit, University of Cambridge); it was assayed likewise but in 10 mM MES-HCl (pH 6.5), 25 mM NaCl, and 2 mM CaCl2. […]

[2] = target: T2, complex I in bacterial membranes (Paracoccus denitrificans, UniProt P29916+P29918+P29920); assay: NADH oxidation in P. denitrificans bacterial membranes; conditions: P. denitrificans membranes 20 μg ml−1
T2 construct: Complex I was purified from P. denitrificans strain Pd1222; endogenous in cells; host or cells: P. denitrificans strain Pd1222
Procedure: as §1

bovine complex I = target: T3, bovine complex I (Bos taurus, UniProt P03887+P17694+P42026); assay: Inhibition kinetics in bovine complex I proteoliposomes with ubiquinone-10 and AOX; conditions: versus ubiquinone-10, reciprocal plots and kinetic modelling
T3 construct: Complex I from bovine heart were prepared; from tissue; host or cells: bovine heart mitochondria
Procedure: Complex I from bovine heart were prepared and used to make proteoliposomes as described previously ([17], [23], [58]). Briefly, liposomes were formed from 8 mg of phosphatidylcholine, 1 mg of phosphatidylethanolamine, and 1 mg of cardiolipin (bovine heart extracts from Avanti Polar Lipids), together with varying amounts of ubiquinone-10 (Sigma-Aldrich), in ~800 μl of 10 mM 3-morpholinopropane-1-sulfonic acid (Mops)-KOH (pH 7.5) and 50 mM KCl. Following extrusion through a 100 nm of Nuclepore polycarbonate membrane (Whatman), the liposomes were partially solubilized with 0.5% sodium cholate (Anatrace), and 0.2 mg of complex I was added for reconstitution. […] Complex I concentration and orientation were quantified using the NADH:APAD^+ activity assay as described previously ([17], [23], [58]). Phospholipid phase volumes were calculated as described previously ([17], [23], [58]) to determine the amount of phospholipid present and by assuming that 1 mg of phospholipid occupies ∼1 μl. Ubiquinone-10 contents were quantified by HPLC, by reference to a set of standard samples, using a Nucleosil 100-5C18 column and a Dionex Ultimate 3000 RS electrochemical detector as described previously ([17], [23], [58]). […] All catalytic activity assays were conducted at 32°C in 96-well plates using a Molecular Devices Spectramax 384 plus plate reader. […]

Compound: CS(=O)(=O)C1CCN(c2cccc(Cn3cc(-c4nc(-c5ccc(OC(F)(F)F)cc5)no4)ccc3=O)c2)CC1 [IACS-2858, 1-(3-(4-(Methylsulfonyl)piperidin-1-yl)benzyl)-5-(3-(4-(trifluoromethoxy)phenyl)-1,2,4-oxadiazol-5-yl)pyridin-2(1H)-one]
- IC50 [1]: ~110 µM
- IC50 [2]: ~61 µM
- mode of inhibition (bovine complex I): competitive
